Measured values: patent US5892018A, “DNA sequences encoding a brain sodium channel protein” (priority 1997, dated 1999)
Ends that are not written are not given here.

Target: T1, BNC1 (Homo sapiens, UniProt Q16515)
T1 construct: a 1539-bp open reading frame extending to the 3' stop codon; expressed in transfected cells; host or cells: Xenopus laevis oocytes, nuclear injection of BNC1 cDNA in pMT3
T1 sequence (Q16515 1-512 T495A): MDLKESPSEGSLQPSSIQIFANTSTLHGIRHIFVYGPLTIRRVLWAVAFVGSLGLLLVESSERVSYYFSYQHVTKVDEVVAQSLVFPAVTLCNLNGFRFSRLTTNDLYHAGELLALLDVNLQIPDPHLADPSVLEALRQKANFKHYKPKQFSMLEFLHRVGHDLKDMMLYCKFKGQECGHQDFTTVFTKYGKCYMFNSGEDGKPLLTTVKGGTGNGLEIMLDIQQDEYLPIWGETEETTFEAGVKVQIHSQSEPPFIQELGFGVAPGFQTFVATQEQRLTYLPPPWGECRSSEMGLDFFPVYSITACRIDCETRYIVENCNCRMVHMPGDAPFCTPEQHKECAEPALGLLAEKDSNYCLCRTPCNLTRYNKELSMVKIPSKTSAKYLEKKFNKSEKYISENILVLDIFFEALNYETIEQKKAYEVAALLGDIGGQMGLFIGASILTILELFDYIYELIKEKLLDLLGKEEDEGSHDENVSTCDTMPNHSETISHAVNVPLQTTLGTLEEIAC
Assay: Two-electrode voltage clamp of Xenopus oocytes expressing BNC1
Assay type: cell-based
Conditions: for activation of BNC1 current by agonist peptide: peptide added to bathing solution at 1-30 μM
Procedure: Expression of BNC1 in Xenopus laevis Oocytes--BNC1 was expressed in Xenopus oocytes by nuclear injection of BNC1 cDNA cloned into pMT3 (0.2-0.3 ng). Control oocytes were injected with H2 O. α-, β-, and γhENaC (αβγhENaC) were expressed as described previously. Oocytes were maintained at 18° C. in modified Barth's solution, and current was measured by two-electrode voltage clamp 1 day after injection. During voltage clamp, oocytes were bathed in 116 mM NaCl, 2 mM KCl, 0.4 mM CaCl2, 1 mM Mg Cl2, 5 mM Hepes (pH 7.4 with NaOH). To determine ionic selectivity, NaCl was replaced with LiCl or KCl. Current-voltage relationships were determined by stepping from a holding potential of -60 mV to potentials between -100 and +40 mV for 1 second. Amiloride-sensitive current was obtained by subtracting current during exposure to a maximal concentration of amiloride (100 μM) from current prior to amiloride addition. Phe-Met-Arg-Phe-NH2 (FMRF-am-ide), Phe-Leu-Phe-Gln-Pro-Gln-Arg-Phe-NH2 (F-8-F-amide), and Ala-Gly-Glu-Gly-Leu-Ser-Ser-Pro-Phe-Trp-Ser-Leu-Ala-Ala-Pro-Gln-Arg-Phe-NH2 (A-18-F-amide) were obtained from Sigma and were added to the bathing solution at 1-30 μM.

**Q.** For `CC(C)C[C@H](NC(=O)[C@@H](N)Cc1ccccc1)C(=O)N[C@@H](Cc1ccccc1)C(=O)N[C@@H](CCC(N)=O)C(=O)N1CCC[C@H]1C(=O)N[C@@H](CCC(N)=O)C(=O)N[C@@H](CCCNC(=N)N)C(=O)N[C@@H](Cc1ccccc1)C(N)=O` [F-8-F-amide, Phe-Leu-Phe-Gln-Pro-Gln-Arg-Phe-NH2], which “activation of BNC1 current by agonist peptide” value (BNC1 in Xenopus oocytes) is on record?
**A.** The value was “not activated”.

**Q.** What does the source list for `N=C(N)NC(=O)c1nc(Cl)c(N)nc1N` [amiloride]?
**A.** IC50 (BNC1 expressed in Xenopus oocytes, plotted as fraction of response to 100 μM amiloride, n=4 (FIG. 8), read-out: half-maximal inhibition of Na+ current): 147 ± 23 nM; inward current reversibly inhibited by amiloride (amiloride-sensitive current) (BNC1 in Xenopus oocytes, holding potential -60 mV, amiloride 100 μM, n=12 (FIG. 6)): 14.0±2.7 nA

**Q.** “Ala-Gly-Glu-Gly-Leu-Ser-Ser-Pro-Phe-Trp-Ser-Leu-Ala-Ala-Pro-Gln-Arg-Phe-NH2 (AGEGLSSPFWSLAAPQRF-NH2) [A-18-F-amide, related mammalian peptide, obtained from Sigma]” was tested. Which “activation of BNC1 current by agonist peptide” value (BNC1 in Xenopus oocytes) did it give?
**A.** Its value is “not activated”.
